The record followed here is paper PMC12520456, “Regulating Enzyme Activity via Microaggregates Mediated by Phase Separation” (Advanced Science, 2025).

A short description of one series: Ca-binding assay. Conditions: peptide 0.625-30 mg/mL with 3 μg/mL Ca2+, 20 mM sodium phosphate buffer pH 7.4, 37 °C 30 min; supernatant calcium by kit; four independent repeats; Figure S1C. From the text: circular dichroism spectrum and molar ellipticity (kdeg·cm2/mol) on the y-axis.
3.3 Peptide Synthesis and DPMD Preparation
All peptides were synthetized according to the optimized HBTU activation/DIEA in situ neutralization protocol developed by […] on the CS bio 336X automated peptide synthesizer. Briefly, after cleavage and deprotection in a reagent cocktail containing 88% TFA, 5% phenol, 5% H2O and 2% TIPS, crude products were precipitated with cold ether and purified to homogeneity by preparative C18 reversed-phase HPLC. The molecular masses were ascertained by electrospray ionization mass spectrometry (ESI-MS). […]
0.22μm filter to remove residue. The calcium content of the supernatant was measured using the Calcium ion detection kit (Beyotime) according to the recommended method. […]
Peptide and enzyme solutions were prepared at varying concentrations and mixed at a 1:1 volume ratio. Solution turbidity was quantitatively assessed by monitoring absorbance at 405 nm using a BioTek spectrophotometer. For fluorescence-based characterization, peptides were labeled with FITC while enzymes were labeled with Cy5. […] For fluorescence recovery after photobleaching (FRAP) analysis, enzyme-aggregated patches were selectively bleached at 60% laser power using 488/640 nm lasers for 10 s, followed by time-lapse imaging at 1-min intervals. […]

Series [1] in a line: In vivo safety after intraperitoneal injection. Further details: species or system rat. From the text:
For in vivo safety, rats receiving an intraperitoneal injection of DPMD were monitored for systemic toxicity and immune response. […] The heart and spleen likewise appeared normal, with no myocardial inflammation or splenic white pulp enlargement (Figure 5G,H). […] We acknowledge that longer‐term studies will be needed, but these initial results support the biosafety of DPMD as a therapeutic agent.
Figure 5 The favorable biosafety and biocompatibility of DPMD. A) The schematic diagram of therapeutic safety benefited from the DPMD. B&C) The blood corpuscle counting and immunotoxicity‐related blood biochemical indexes of rats treated with the DPMD or PBS using intraperitoneal administration. D) Hepatotoxicity measured by pathological section of liver, ALT (glutamic‐pyruvic transaminase), AST (glutamic‐oxalacetic transaminase), total bilirubin (TBIL) and inflammatory cytokines (IL‐6, TNF‐α, MCP‐1and NF‐κB) of liver. E) Nephrotoxicity test, including pathological section of kidney, CR (creatinine), BUN (Blood Urea Nitrogen), albumin (ALB) and inflammatory cytokines (IL‐6, TNF‐α, MCP‐1and NF‐κB) of kidney. […] G) Cardiotoxicity reflected by pathological section and inflammatory cytokines (IL‐6, TNF‐α, MCP‐1and NF‐κB) infiltrating in heart. H) The H&E staining of spleen sections, and IL‐6, TNF‐α, MCP‐1and NF‐κB cytokines were involved in safety detection of DPMD or PBS in spleen. The data from each group were presented as the mean ± SD. Scale bar: 100 µm. Statistical analysis in B‐G was performed using unpaired t‐test.

The target in series [2] is T1, chymotrypsin pre-incubated with aprotinin (Bos taurus, UniProt P00766).
T1 construct: purchased Aladdin (chymotrypsin); Yeasen Biotechnology (aprotinin)
The experiment in a line: Fluorescence anisotropy binding, aprotinin-blocked chymotrypsin. As to conditions: inhibitor and protein both at 20 μM; Figure S3C. From the text:
Figure S3. The fluorescent anisotropy evaluation of binding affinity between DPMD peptide with Proteinase K (A), and inhibitor-saturated and blocked trypsin (B) and chymotrypsin (C). Trypsin/Chymotrypsin was saturated and blocked by aprotinin (Yeasen Biotechnology, trypsin/chymotrypsin inhibitor). (D-H) The fluorescent anisotropy evaluation of binding affinity between DPMD peptide with elastase (D), lipase (E), amylase(F), carboxypeptidase (G), albumin (H) and immunoglobulins (I).
Figure S4. The DLS analysis of trypsin, chymotrypsin and DPMD with/without trypsin or chymotrypsin. […]
data acquisition. A series of enzyme solutions with varying concentrations (maximum concentrations of trypsin and chymotrypsin were 20 μM each) were prepared in Tris-HCl buffer (10 mM Tris, 150 mM NaCl, 1 mM EDTA, pH 7.0). These enzyme solutions were added to the 96-well plate and incubated with 100 nM DPMD at room temperature for 30 minutes, with triplicates.
Fluorescence polarization was measured with an excitation wavelength of 470 nm and an emission […]
Plot the fluorescence intensity versus concentration data as scatter plots using Origin software.
For data analysis, fit the concentration-fluorescence polarization data with the logistic function in Origin 2021 software to obtain the fitting curve and determine the half-maximal effective concentration (EC50). […]
(In general: Polarisation of emitted light reports the rotation of a fluorescent probe.)

Setting [3] is: intraperitoneal injection, 7 days post-treatment.

Non-standard residues stand in square brackets, D forms with d. Residues, ends and D or L forms follow the SMILES beside them.

Turning to `CC[C@@H](C)[C@@H](NC(=O)[C@@H](CCC(N)=O)NC(=O)[C@H](NC(=O)[C@@H](Cc1ccc(O)cc1)NC(=O)CNC(=O)[C@@H](CC(C)C)NC(=O)[C@H](NC(=O)[C@@H](CO)NC(=O)CNC(=O)[C@@H](C)NC(=O)[C@@H](CC(=O)O)NC(=O)[C@@H](C)NC(=O)[C@@H](CCCNC(=N)N)NC(=O)[C@@H](C)NC(=O)[C@@H](CC(=O)O)NC(=O)[C@@H](C)NC(=O)[C@@H](CCCNC(=N)N)NC(=O)[C@@H](C)NC(=O)[C@@H](CC(=O)O)NC(=O)[C@@H](C)NC(=O)[C@@H](CCCNC(=N)N)NC(=O)[C@@H](C)NC(=O)[C@@H](CC(=O)O)NC(=O)[C@@H](C)NC(=O)[C@H](N)CCCNC(=N)N)C(C)C)[C@H](C)CC)C(=O)N[C@H](CCCNC(=N)N)C(=O)O` [DPMD, Ac‐(D‐RADA)4‐CONH2] (H-[dR][dA][dD][dA][dR][dA][dD][dA][dR][dA][dD][dA][dR][dA][dD][dA]G[dS][dV][dL]G[dY][dI][dQ][dI][dR]-OH; N-terminus and C-terminus assumed), the “Ca^2+ binding capacity” value in the series “Ca-binding assay” is reported as “clear binding affinity”. Besides, in series [1] (setting [3]), the “blood cell counts (red and white cells, platelets)” value was “remained within normal limits”; the “liver function tests (ALT, AST, total bilirubin) and kidney function markers (creatinine, BUN, albumin)” value is given as “no signs of organ damage or dysfunction”; the “serum pro-inflammatory cytokine levels (IL-6, TNF-α, MCP-1, NF-κB)” value is given as “indistinguishable from saline‐treated controls”. Further, the “histopathological examination of major organs” value in series [1] (liver, kidney, lung, heart, spleen, H&E) is recorded as “no microscopic evidence of toxicity”. Also, in series [2], the “anisotropy change with aprotinin-blocked chymotrypsin” value is listed as “only a minimal anisotropy change”.
